How the values were obtained:
HT-29 [1] = assay: Antitumor activity against human HT-29 cells assessed as upregulation of RASSF4 mRNA expression at 10 nM after 3 hrs relative to control; type: functional
U2OS [2] = assay: Cell cycle arrest in human U2OS cells assessed as accumulation at sub-G1 phase at 50 nM after 48 hrs by FACS analysis relative to control; type: functional
MCF7 = assay: Cytotoxicity against human MCF7 cells by sulforhodamine B assay; type: functional
HCT-15 = assay: Cytotoxicity against human HCT15 cells by sulforhodamine B assay; type: functional
HL-60(TB) = assay: Cytotoxicity against human HL-60(TB) cells by sulforhodamine B assay; type: functional
MOLT-4 = assay: Cytotoxicity against human MOLT4 cells by sulforhodamine B assay; type: functional
UO-31 = assay: Cytotoxicity against human UO31 cells by sulforhodamine B assay; type: functional
HT-29 [3] = assay: Antitumor activity against human HT-29 cells assessed as down-regulation of CCNE2 mRNA expression at 2 nM after 6 hrs relative to control; type: functional
HT-29 [4] = assay: Antitumor activity against human HT-29 cells assessed as down-regulation of TAL1 mRNA expression at 10 nM after 3 hrs relative to control; type: functional
[5] = Cytotoxicity against activated human CD4+ T cells assessed as cell viability after 5 days by fluorescence detection method; type: cell-based; conditions: 120 h
HT-29 [6] = assay: Antitumor activity against human HT-29 cells assessed as upregulation of DDIT4 mRNA expression at 10 nM after 12 hrs relative to control; type: functional
HT-29 [7] = assay: Antitumor activity against human HT-29 cells assessed as upregulation of MGC4504 mRNA expression at 10 nM after 3 hrs relative to control; type: functional
SF-539 = assay: Cytotoxicity against human SF539 cells by sulforhodamine B assay; type: functional
HT-29 [8] = assay: Antitumor activity against human HT-29 cells assessed as upregulation of DDIT4 mRNA expression at 2 nM after 6 hrs relative to control; type: functional
HT-29 [9] = assay: Antitumor activity against human HT-29 cells assessed as down-regulation of CDC25A mRNA expression at 10 nM after 3 hrs relative to control; type: functional
KM12 = assay: Cytotoxicity against human KM12 cells by sulforhodamine B assay; type: functional
OVCAR-4 = assay: Cytotoxicity against human OVCAR4 cells by sulforhodamine B assay; type: functional
HT-29 [10] = assay: Antitumor activity against human HT-29 cells assessed as upregulation of MGC4504 mRNA expression at 2 nM after 3 hrs relative to control; type: functional
HCC 2998 = assay: Cytotoxicity against human HCC2998 cells by sulforhodamine B assay; type: functional
U-251 = assay: Cytotoxicity against human U251 cells by sulforhodamine B assay; type: functional
IGROV-1 = assay: Cytotoxicity against human IGROV1 cells by sulforhodamine B assay; type: functional
HT-29 [11] = assay: Antitumor activity against human HT-29 cells assessed as down-regulation of RAB11B mRNA expression at 2 nM after 3 hrs relative to control; type: functional
HT-29 [12] = assay: Antitumor activity against human HT-29 cells assessed as down-regulation of TAL1 mRNA expression at 2 nM after 3 hrs relative to control; type: functional
U2OS [13] = assay: Cell cycle arrest in human U2OS cells overexpressing mouse Fgfr1 assessed as accumulation at S phase at 15 nM after 48 hrs by CMV-GFP reporter assay method (reference value: 33%); type: functional
HT-29 [14] = assay: Antitumor activity against human HT-29 cells assessed as upregulation of RASSF4 mRNA expression at 2 nM after 6 hrs relative to control; type: functional
HT-29 [15] = assay: Antitumor activity against human HT-29 cells assessed as upregulation of DDIT4 mRNA expression at 2 nM after 12 hrs relative to control; type: functional
SNB-75 = assay: Cytotoxicity against human SNB75 cells by sulforhodamine B assay; type: functional
HT-29 [16] = assay: Antitumor activity against human HT-29 cells assessed as down-regulation of TAL1 mRNA expression at 10 nM after 6 hrs relative to control; type: functional
786-0 = assay: Cytotoxicity against human 786-0 cells by sulforhodamine B assay; type: functional
HT-29 [17] = assay: Antitumor activity against human HT-29 cells assessed as upregulation of HSPA1A mRNA expression at 2 nM after 3 hrs relative to control; type: functional
HT-29 [18] = assay: Antitumor activity against human HT-29 cells assessed as down-regulation of GTSE1 mRNA expression at 10 nM after 3 hrs relative to control; type: functional
HT-29 [19] = assay: Antitumor activity against human HT-29 cells assessed as down-regulation of TAL1 mRNA expression at 2 nM after 12 hrs relative to control; type: functional
HOP-92 = assay: Cytotoxicity against human HOP92 cells by sulforhodamine B assay; type: functional
U2OS [20] = assay: Antiproliferative activity against human U2OS cells expressing constitutively active Stat3 mutant after 48 hrs by CMV-GFP reporter assay method; type: functional, cell-based
NCI-H322M = assay: Cytotoxicity against human NCI-H322M cells by sulforhodamine B assay; type: functional
HT-29 [21] = assay: Antitumor activity against human HT-29 cells assessed as upregulation of KCNK10 mRNA expression at 10 nM after 3 hrs relative to control; type: functional
HCT-116 = assay: Cytotoxicity against human HCT116 cells by sulforhodamine B assay; type: functional
HT-29 [22] = assay: Antitumor activity against human HT-29 cells assessed as upregulation of DDIT4 mRNA expression at 2 nM after 3 hrs relative to control; type: functional
U2OS [23] = assay: Induction of apoptosis in human U2OS cells assessed as caspase3 dependent cleavage of Ac-DEVD-pNA at 50 nM after 6-48 hrs by […] relative to control; type: functional
HT-29 [24] = assay: Antitumor activity against human HT-29 cells assessed as down-regulation of CCNE2 mRNA expression at 10 nM after 12 hrs relative to control; type: functional
HT-29 [25] = assay: Antitumor activity against human HT-29 cells assessed as down-regulation of CDC25A mRNA expression at 2 nM after 12 hrs relative to control; type: functional
OVCAR-3 = assay: Cytotoxicity against human OVCAR-3 cells by sulforhodamine B assay; type: functional
HT-29 [26] = assay: Antitumor activity against human HT-29 cells assessed as down-regulation of RAB11B mRNA expression at 2 nM after 12 hrs relative to control; type: functional
SNB-19 = assay: Cytotoxicity against human SNB19 cells by sulforhodamine B assay; type: functional
HT-29 [27] = assay: Antitumor activity against human HT-29 cells assessed as upregulation of HSPA1A mRNA expression at 10 nM after 12 hrs relative to control; type: functional
MDA-MB-435 = assay: Cytotoxicity against human MDA-MB-435 cells by sulforhodamine B assay; type: functional
HT-29 [28] = assay: Antitumor activity against human HT-29 cells assessed as upregulation of RASSF4 mRNA expression at 2 nM after 3 hrs relative to control; type: functional
HT-29 [29] = assay: Antitumor activity against human HT-29 cells assessed as down-regulation of TAL1 mRNA expression at 2 nM after 6 hrs relative to control; type: functional
NCI-H23 = assay: Cytotoxicity against human NCI-H23 cells by sulforhodamine B assay; type: functional

SMILES: CC[C@H](C)[C@H]1C(=O)N2CCC[C@H]2C(=O)O[C@H](C(C)(C)C)C[C@@H](C)C[C@H](O)[C@H](C)C2=N[C@@H](/C=C(\C)C(=O)N[C@@H](Cc3ccc(OC)cc3)C(=O)N(C)[C@@H](C)C(=O)N1C)CS2 [APRATOXIN A]
- fold change (FC) (HT-29 [1]): <=2
- inhibition at 0.05 µM (U2OS [2]): 42.7%
- GI50 (MCF7): 6.57 nM
- GI50 (HCT-15): 4.29 nM
- GI50 (HL-60(TB)): 0.851 nM
- GI50 (MOLT-4): 48 nM
- GI50 (UO-31): 2.95 nM
- fold change (FC) (HT-29 [3]): <=2
- fold change (FC) (HT-29 [4]): <=2
- IC50 [5]: 60 nM
- fold change (FC) (HT-29 [6]): 6.82
- fold change (FC) (HT-29 [7]): <=2
- GI50 (SF-539): 0.503 nM
- CC50 (SF-539; read-out: LC50 (the source's name)): 69.4 nM
- fold change (FC) (HT-29 [8]): 10.37
- fold change (FC) (HT-29 [9]): <=2
- GI50 (KM12): 3.52 nM
- GI50 (OVCAR-4): > 100 nM
- fold change (FC) (HT-29 [10]): <=2
- GI50 (HCC 2998): 3.65 nM
- GI50 (U-251): 1.56 nM
- GI50 (IGROV-1): 0.742 nM
- fold change (FC) (HT-29 [11]): -3.68
- fold change (FC) (HT-29 [12]): -2.52
- inhibition at 0.015 µM (U2OS [13]): 28%
- fold change (FC) (HT-29 [14]): <=2
- fold change (FC) (HT-29 [15]): 3.78
- GI50 (SNB-75): 1.96 nM
- fold change (FC) (HT-29 [16]): <=2
- GI50 (786-0): 4.52 nM
- fold change (FC) (HT-29 [17]): <=2
- fold change (FC) (HT-29 [18]): <=2
- fold change (FC) (HT-29 [19]): <=2
- GI50 (HOP-92): 3.09 nM
- IC50 (U2OS [20]): 50 nM
- GI50 (NCI-H322M): 3.99 nM
- fold change (FC) (HT-29 [21]): 10.01
- GI50 (HCT-116): 0.916 nM
- fold change (FC) (HT-29 [22]): 2.49
- fold change (FC) (U2OS [23]): 20
- fold change (FC) (HT-29 [24]): -2.17
- fold change (FC) (HT-29 [25]): -2.2
- GI50 (OVCAR-3): 16.9 nM
- fold change (FC) (HT-29 [26]): <=2
- GI50 (SNB-19): 7 nM
- fold change (FC) (HT-29 [27]): <=2
- GI50 (MDA-MB-435): 3.35 nM
- fold change (FC) (HT-29 [28]): 12.65
- fold change (FC) (HT-29 [29]): <=2
- GI50 (NCI-H23): 8.23 nM

Source: ChEMBL document CHEMBL1240307, “A functional genomics approach to the mode of action of apratoxin A” (Nat Chem Biol, 2006)
